From patent US10875845B2, “Compounds and methods for the treatment of ocular disorders” (Azura Ophthalmics Ltd., priority 2019, dated 2020) come the findings set out here.

One data set has as its system Rabbit Cornea Homogenate. In words: Rabbit Cornea Homogenate Stability Assay (rabbit cornea esterase assay). The class given is in vitro ADME. The following applies: 37° C. Here is the method:
Determining Rabbit Cornea Homogenate stability of the test compounds was performed using HPLC-MS. The assay was performed at two concentrations of Rabbit Cornea Homogenate (0.15 mg/ml and 0.45 mg/ml total protein) so that any hydrolysis observed could be assigned as esterase dependent or not.
Five rabbit corneas (e.g. New Zealand Whites) of approx. 50 mg each were sliced and scraped with a scalpel and tweezers until reduced to small (1-3 mm), thin pieces. These were transferred into a tared vial and accurately weighed, then diluted with 10 volumes aqueous PBS pH7.4
Sample was cooled intermittently on ice and shear homogenized for 3 minutes, then centrifuged for 3 min at 3000 rpm. The supernatant was pipetted off into a vial, and total protein concentration determined at 280 nm. Sample was stored at −78° C.
10 mM Compound stocks were diluted to 100 μM in a 96 deep-well plate: 10 μl of 10 mM Compound stock was added to 990 μl 50 mM HEPES, pH7.5 buffer.
Compounds were further diluted to 10 μM: 100 μl of 100 μM compound was added to 900 μl 50 mM HEPES, pH7.5 buffer.
Esterase homogenate was diluted to 300 ng/μl and 900 ng/μl
A heater shaker was set to 37° C. Into a suitable 96 well plate (Run Plate), 75 μl of 300 or 900 ng/μl esterase homogenate was pipetted into each of the required wells (2 min, 5 min, 10 min, 20 min and 45 min). The plate was sealed and then warmed at 37° C. for 5 min. Another 96 well PCR plate is put on ice (Kill Plate). To this was added 100 μl of MeCN to each well, labelled 0 min, 2 min, 5 min, 10 min, 20 min and 45 min. The plate was covered to minimise evaporation. For the T=0 sample only, to the 100 μl cold MeCN stop solution was added 50 μl of 300 or 900 ng/μl esterase homogenate followed by 50 μl of 10 μM compound solution For the remaining time points, 75 μl of 10 μM compound solution was added to the Run Plate starting from T=45 min row and ending with T=2 min row. At the appropriate time point, 100 μl of the assay mixture was added to the matching kill plate well containing 100 μl of cold MeCN. Samples were analysed as soon as practicable by LCMS (Waters Xevo TQ-S or Micromass Ultima).
Parent conjugate and parent concentrations were determined against appropriate standard response curves and the half-life (T1/2) of the parent conjugate was calculated using the peak area of the parent conjugate at each time point in the linear region of the log—linear plot.

The nature of data set [1]: Aqueous Hydrolysis Stability Assay. In kind it is physicochemical. The note with it: 100 μM in 50 mM HEPES pH 7.5 buffer or 1:1 Acetonitrile:Water, room temperature. On the procedure: Determination of aqueous stability of the test compounds was performed using HPLC-MS. A test compound 10 mM stock solution was prepared in DMSO. 10 μl of the DMSO stock solution was dissolved in 990 μl of 50 mM HEPES pH 7.5 buffer or 1:1 (v/v) of Acetonitrile:Water to make a 100 μM solution. Final DMSO concentration was 1%. The solution was kept at room temperature and injected without delay into the LCMS (Waters Xevo TQ-S or Micromass Ultima). Additional injections were performed at appropriate time points.
Half-life (T1/2) of the parent conjugate was calculated using the peak area of the parent conjugate at each time point in the linear region of the log—linear plot.

[2] abbreviates: Cornea Homogenate Conc 0.15 mg/mL.
The mark [3] stands for this setting: Cornea Homogenate Conc 0.45 mg/mL.

Regarding `CC(OC(=O)[C@H](Cc1cccc(S(C)(=O)=O)c1)NC(=O)c1c(Cl)cc2c(c1Cl)CCN(C(=O)c1ccc3ccoc3c1)C2)OC(=O)C(C)(C)C` (stereo partly drawn) [Comp 17, 1-(((S)-2-(2-(benzofuran-6-carbonyl)-5,7-dichloro-1,2,3,4-tetrahydroisoquinoline-6-carboxamido)-3-(3-(methylsulfonyl)phenyl)propanoyl)oxy)ethyl pivalate], in the data set on Rabbit Cornea Homogenate (setting [2]), the “API Formation rate” value is “b (API formation rate 0.5-1.0%/min)” and the “Esterase % Lifitegrast formation at 45 min” value is “B (percent API formation 25% to 50%)”. In addition, in the data set with Rabbit Cornea Homogenate (setting [3]), the “API Formation rate” value is “c (API formation rate 1.0-1.5%/min)” and the “Esterase % Lifitegrast formation at 45 min” value was “C (percent API formation 51% to 75%)”. In data set [1] (at 45 min), the “Hydrolytic % Lifitegrast formation at [time]” value was “A [45 min] (percent active pharmaceutical ingredient (API) formation<1.5%)”.
Regarding `CCOC(=O)[C@@H](C)OC(=O)OC(C)OC(=O)[C@H](Cc1cccc(S(C)(=O)=O)c1)NC(=O)c1c(Cl)cc2c(c1Cl)CCN(C(=O)c1ccc3ccoc3c1)C2` (stereo partly drawn) [Comp 8, 1-(((((R)-1-ethoxy-1-oxopropan-2-yl)oxy)carbonyl)oxy)ethyl (2S)-2-(2-(benzofuran-6-carbonyl)-5,7-dichloro-1,2,3,4-tetrahydroisoquinoline-6-carboxamido)-3-(3-(methylsulfonyl)phenyl) propanoate], in the data set with Rabbit Cornea Homogenate (setting [2]), the “API Formation rate” value was “b (API formation rate 0.5-1.0%/min)” and the “Esterase % Lifitegrast formation at 45 min” value is recorded as “B (percent API formation 25% to 50%)”. In addition, in the data set on Rabbit Cornea Homogenate (setting [3]), the “API Formation rate” value is on record as “d (API formation rate>1.5%/min)” and the “Esterase % Lifitegrast formation at 45 min” value was “C (percent API formation 51% to 75%)”. Moreover, the “Hydrolytic % Lifitegrast formation at [time]” value in data set [1] (at 45 min) is “A [45 min] (percent active pharmaceutical ingredient (API) formation<1.5%)”.
Consider `COC(=O)[C@@H](C)OC(=O)OC(C)OC(=O)[C@H](Cc1cccc(S(C)(=O)=O)c1)NC(=O)c1c(Cl)cc2c(c1Cl)CCN(C(=O)c1ccc3ccoc3c1)C2` (stereo partly drawn) [Comp 7, 1-(((((R)-1-methoxy-1-oxopropan-2-yl)oxy)carbonyl)oxy)ethyl (2S)-2-(2-(benzofuran-6-carbonyl)-5,7-dichloro-1,2,3,4-tetrahydroisoquinoline-6-carboxamido)-3-(3-(methylsulfonyl)phenyl) propanoate], for which the figures for the “API Formation rate” value in the data set with Rabbit Cornea Homogenate (setting [2]) and with Rabbit Cornea Homogenate (setting [3]) were “b (API formation rate 0.5-1.0%/min)” and “c (API formation rate 1.0-1.5%/min)”, respectively. Further, the entries for the “Esterase % Lifitegrast formation at 45 min” value in the data set on Rabbit Cornea Homogenate (setting [2]) and with Rabbit Cornea Homogenate (setting [3]) were “B (percent API formation 25% to 50%)” and “C (percent API formation 51% to 75%)”, respectively. Besides, the “Hydrolytic % Lifitegrast formation at [time]” value in data set [1] (at 142 min) is “B [142 min] (percent API formation 1.5-4%)”.
Consider `CC(=O)OCC(COC(C)=O)COC(=O)OC(C)OC(=O)[C@H](Cc1cccc(S(C)(=O)=O)c1)NC(=O)c1c(Cl)cc2c(c1Cl)CCN(C(=O)c1ccc3ccoc3c1)C2` (stereo partly drawn) [Comp 11, 2-((8S)-10-(2-(benzofuran-6-carbonyl)-5,7-dichloro-1,2,3,4-tetrahydroisoquinolin-6-yl)-5-methyl-8-(3-(methylsulfonyl)benzyl)-3,7,10-trioxo-2,4,6-trioxa-9-azadecyl)propane-1,3-diyl diacetate], for which, in the data set with Rabbit Cornea Homogenate (setting [2]), the “API Formation rate” value is on record as “b (API formation rate 0.5-1.0%/min)” and the “Esterase % Lifitegrast formation at 45 min” value is listed as “B (percent API formation 25% to 50%)”. In addition, in the data set with Rabbit Cornea Homogenate (setting [3]), the “API Formation rate” value is recorded as “c (API formation rate 1.0-1.5%/min)” and the “Esterase % Lifitegrast formation at 45 min” value is “B (percent API formation 25% to 50%)”. The “Hydrolytic % Lifitegrast formation at [time]” value in data set [1] (at 142 min) was “C [142 min] (percent API formation>4%)”.
`CC(OC(=O)CO)OC(=O)[C@H](Cc1cccc(S(C)(=O)=O)c1)NC(=O)c1c(Cl)cc2c(c1Cl)CCN(C(=O)c1ccc3ccoc3c1)C2` (stereo partly drawn) [Comp 19, 1-(2-hydroxyacetoxy)ethyl (2S)-2-(2-(benzofuran-6-carbonyl)-5,7-dichloro-1,2,3,4-tetrahydroisoquinoline-6-carboxamido)-3-(3-(methylsulfonyl)phenyl) propanoate]: in the data set on Rabbit Cornea Homogenate (setting [2]), the “API Formation rate” value is reported as “b (API formation rate 0.5-1.0%/min)” and the “Esterase % Lifitegrast formation at 45 min” value is given as “B (percent API formation 25% to 50%)”. In the data set on Rabbit Cornea Homogenate (setting [3]), the “API Formation rate” value is reported as “b (API formation rate 0.5-1.0%/min)” and the “Esterase % Lifitegrast formation at 45 min” value is on record as “B (percent API formation 25% to 50%)”. For the same molecule, the “Hydrolytic % Lifitegrast formation at [time]” value in data set [1] (at 45 min) was “B [45 min] (percent API formation 1.5-4%)”.
Consider `CC(C)OC(=O)OC(C)OC(=O)[C@H](Cc1cccc(S(C)(=O)=O)c1)NC(=O)c1c(Cl)cc2c(c1Cl)CCN(C(=O)c1ccc3ccoc3c1)C2` (stereo partly drawn) [Comp 5, 1-((isopropoxycarbonyl)oxy)ethyl (2S)-2-(2-(benzofuran-6-carbonyl)-5,7-dichloro-1,2,3,4-tetrahydroisoquinoline-6-carboxamido)-3-(3-(methylsulfonyl)phenyl) propanoate], for which, in the data set with Rabbit Cornea Homogenate (setting [2]), the “API Formation rate” value is on record as “b (API formation rate 0.5-1.0%/min)” and the “Esterase % Lifitegrast formation at 45 min” value was “B (percent API formation 25% to 50%)”. Besides, in the data set on Rabbit Cornea Homogenate (setting [3]), the “API Formation rate” value was “d (API formation rate>1.5%/min)” and the “Esterase % Lifitegrast formation at 45 min” value was “D (percent API formation>75%)”. Also, the “Hydrolytic % Lifitegrast formation at [time]” value in data set [1] (at 192 min) is “A [192 min] (percent active pharmaceutical ingredient (API) formation<1.5%)”.
On to `CC(OC(=O)CCCC[C@@H]1CCSS1)OC(=O)[C@H](Cc1cccc(S(C)(=O)=O)c1)NC(=O)c1c(Cl)cc2c(c1Cl)CCN(C(=O)c1ccc3ccoc3c1)C2` (stereo partly drawn) [Comp 20, 1-(((S)-2-(2-(benzofuran-6-carbonyl)-5,7-dichloro-1,2,3,4-tetrahydroisoquinoline-6-carboxamido)-3-(3-(methylsulfonyl)phenyl)propanoyl)oxy)ethyl 5-((R)-1,2-dithiolan-3-yl)pentanoate], for which, in the data set on Rabbit Cornea Homogenate (setting [2]), the “API Formation rate” value is listed as “a (API formation rate<0.5%/min)” and the “Esterase % Lifitegrast formation at 45 min” value is “A (percent active pharmaceutical ingredient (API) formation<25%)”. In the data set with Rabbit Cornea Homogenate (setting [3]), the “API Formation rate” value is listed as “b (API formation rate 0.5-1.0%/min)” and the “Esterase % Lifitegrast formation at 45 min” value is recorded as “B (percent API formation 25% to 50%)”. Besides, the “Hydrolytic % Lifitegrast formation at [time]” value in data set [1] (at 45 min) was “A [45 min] (percent active pharmaceutical ingredient (API) formation<1.5%)”.
On to `CC(OC(=O)OCC(CO)CO)OC(=O)[C@H](Cc1cccc(S(C)(=O)=O)c1)NC(=O)c1c(Cl)cc2c(c1Cl)CCN(C(=O)c1ccc3ccoc3c1)C2` (stereo partly drawn) [Comp 10, 1-(((3-hydroxy-2-(hydroxymethyl)propoxy)carbonyl)oxy)ethyl (2S)-2-(2-(benzofuran-6-carbonyl)-5,7-dichloro-1,2,3,4-tetrahydroisoquinoline-6-carboxamido)-3-(3-(methylsulfonyl)phenyl) propanoate], for which, in the data set on Rabbit Cornea Homogenate (setting [2]), the “API Formation rate” value is given as “b (API formation rate 0.5-1.0%/min)” and the “Esterase % Lifitegrast formation at 45 min” value is “A (percent active pharmaceutical ingredient (API) formation<25%)”. Moreover, in the data set with Rabbit Cornea Homogenate (setting [3]), the “API Formation rate” value is recorded as “b (API formation rate 0.5-1.0%/min)” and the “Esterase % Lifitegrast formation at 45 min” value is on record as “B (percent API formation 25% to 50%)”. The “Hydrolytic % Lifitegrast formation at [time]” value in data set [1] (at 142 min) is “C [142 min] (percent API formation>4%)”.
`CC(=O)OC(C)OC(=O)[C@H](Cc1cccc(S(C)(=O)=O)c1)NC(=O)c1c(Cl)cc2c(c1Cl)CCN(C(=O)c1ccc3ccoc3c1)C2` (stereo partly drawn) [Comp 14, 1-acetoxyethyl (2S)-2-(2-(benzofuran-6-carbonyl)-5,7-dichloro-1,2,3,4-tetrahydroisoquinoline-6-carboxamido)-3-(3-(methylsulfonyl)phenyl) propanoate]: the “API Formation rate” value is “c (API formation rate 1.0-1.5%/min)” in the data set on Rabbit Cornea Homogenate (setting [2]) and “d (API formation rate>1.5%/min)” in the data set on Rabbit Cornea Homogenate (setting [3]). Further, the “Esterase % Lifitegrast formation at 45 min” value with Rabbit Cornea Homogenate (setting [2]) is on record as “C (percent API formation 51% to 75%)”; in the data set on Rabbit Cornea Homogenate (setting [3]), “D (percent API formation>75%)”. In addition, the “Hydrolytic % Lifitegrast formation at [time]” value in data set [1] (at 142 min) was “B [142 min] (percent API formation 1.5-4%)”.
